# According to patent publication US11524968B2, “Heterocyclic compound as a protein kinase inhibitor” (HK inno.N Corporation, priority 2017, dated 2022):
# Target: JAK1 (Homo sapiens (Human), UniProt P23458)
# Assay: Analysis of JAK1 activity inhibition ability (ADP-Glo Kinase Assay)
# Format: biochemical
# Details: JAK1 enzyme, ADP-Glo luminescence, ATP 250 uM, IRS-itide substrate, 30° C. 40 minutes; read-out: IC50
# Summary of the method: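 ADP-Glo luminescence read-out of ADP production, with IC50 taken as the concentration halving JAK1 activity relative to control. Enzyme was incubated 40 min at 30 °C with compound, IRS-itide (40 ng/mL) and ATP (250 uM), concentrations as prepared in pH 7.5 Tris-HCl/MgCl2/BSA/DTT buffer.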
# JAK1, sequence (P23458 whole entry): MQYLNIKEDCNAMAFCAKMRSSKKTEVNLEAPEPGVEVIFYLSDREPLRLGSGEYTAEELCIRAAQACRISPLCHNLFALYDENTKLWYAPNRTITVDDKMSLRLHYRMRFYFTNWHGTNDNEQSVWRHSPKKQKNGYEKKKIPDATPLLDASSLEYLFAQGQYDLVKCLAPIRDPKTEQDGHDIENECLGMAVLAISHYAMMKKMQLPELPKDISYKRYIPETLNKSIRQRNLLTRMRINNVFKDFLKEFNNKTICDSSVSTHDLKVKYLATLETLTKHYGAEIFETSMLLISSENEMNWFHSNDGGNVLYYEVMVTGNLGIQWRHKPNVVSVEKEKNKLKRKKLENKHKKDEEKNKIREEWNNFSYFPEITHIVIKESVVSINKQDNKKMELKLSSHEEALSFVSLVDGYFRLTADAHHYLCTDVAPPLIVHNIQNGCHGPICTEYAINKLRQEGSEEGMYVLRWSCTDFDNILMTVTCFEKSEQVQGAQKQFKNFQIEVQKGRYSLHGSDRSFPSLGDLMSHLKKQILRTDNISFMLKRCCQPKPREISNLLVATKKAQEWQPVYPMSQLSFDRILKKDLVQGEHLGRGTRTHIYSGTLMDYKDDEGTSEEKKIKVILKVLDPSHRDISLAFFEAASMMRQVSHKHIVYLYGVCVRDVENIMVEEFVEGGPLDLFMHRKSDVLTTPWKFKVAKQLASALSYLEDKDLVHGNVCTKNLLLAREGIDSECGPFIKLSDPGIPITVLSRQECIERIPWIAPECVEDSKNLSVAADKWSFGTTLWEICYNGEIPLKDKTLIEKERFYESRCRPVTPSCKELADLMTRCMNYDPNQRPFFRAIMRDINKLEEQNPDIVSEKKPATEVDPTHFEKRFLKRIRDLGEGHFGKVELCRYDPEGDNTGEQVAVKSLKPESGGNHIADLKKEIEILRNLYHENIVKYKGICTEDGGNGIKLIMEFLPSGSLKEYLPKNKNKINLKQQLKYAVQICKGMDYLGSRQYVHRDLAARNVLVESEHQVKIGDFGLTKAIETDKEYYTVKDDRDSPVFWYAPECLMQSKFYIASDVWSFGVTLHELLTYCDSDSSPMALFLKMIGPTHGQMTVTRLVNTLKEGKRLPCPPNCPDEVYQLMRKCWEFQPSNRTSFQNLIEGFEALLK
row,SMILES,IC50 [nM]
1,"O=C(Nc1cc(-c2ccc(NS(=O)(=O)N3CCCCC3)c(F)c2)c2cc[nH]c2n1)C1CC1 [Example 224, N-(4-(3-fluoro-4-(piperidine-1-sulfonamido)phenyl)-1H-pyrrolo[2,3-b]pyridin-6-yl)cyclopropanecarboxamide]",< 20
2,"O=C(Nc1cc(-c2ccc(NS(=O)(=O)N3CCCC3)c(F)c2)c2cc[nH]c2n1)C1CC1 [Example 225, N-(4-(3-fluoro-4-(pyrrolidine-1-sulfonamido)phenyl)-1H-pyrrolo[2,3-b]pyridin-6-yl)cyclopropanecarboxamide]",< 20
3,"O=C(Nc1cc(-c2ccc(NS(=O)(=O)N3CCOCC3)c(F)c2)c2cc[nH]c2n1)C1CC1 [Example 226, N-(4-(3-fluoro-4-(morpholine-4-sulfonamido)phenyl)-1H-pyrrolo[2,3-b]pyridin-6-yl)cyclopropanecarboxamide]",< 20
4,"Cc1cc(NS(=O)(=O)NCC(F)(F)F)ccc1-c1cc(NC(=O)C2CC2)nc2[nH]ccc12 [Example 227, N-(4-(2-methyl-4-((N-(2,2,2-trifluoroethyl)sulfamoyl)amino)phenyl)-1H-pyrrolo[2,3-b]pyridin-6-yl)cyclopropanecarboxamide]",20 to 200
5,"Cc1cc(NS(=O)(=O)N(C)CC(F)(F)F)ccc1-c1cc(NC(=O)C2CC2)nc2[nH]ccc12 [Example 228, N-(4-(2-methyl-4-((N-methyl-N-(2,2,2-trifluoroethyl)sulfamoyl)amino)phenyl)-1H-pyrrolo[2,3-b]pyridin-6-yl)cyclopropanecarboxamide]",< 20
6,"O=C(Nc1cc(-c2ccc(NS(=O)(=O)N3CCS(=O)(=O)CC3)cc2)c2cc[nH]c2n1)C1CC1 [Example 229, N-(4-(4-((1,1-dioxidothiomorpholine)-4-sulfonamido)phenyl)-1H-pyrrolo[2,3-b]pyridin-6-yl)cyclopropanecarboxamide]",< 20
7,"CS(=O)(=O)N1CCN(S(=O)(=O)Nc2ccc(-c3cc(NC(=O)C4CC4)nc4[nH]ccc34)cc2)CC1 [Example 230, N-(4-(4-((4-(methylsulfonyl)piperazine)-1-sulfonamido)phenyl)-1H-pyrrolo[2,3-b]pyridin-6-yl)cyclopropanecarboxamide]",< 20
8,"O=C(Nc1cc(C2=CCC(NS(=O)(=O)N3CCOCC3)CC2)c2cc[nH]c2n1)C1CC1 (stereo not shown) [Example 231, N-(4-(4-(morpholine-4-sulfonamido)cyclohex-1-en-1-yl)-1H-pyrrolo[2,3-b]pyridin-6-yl)cyclopropanecarboxamide]",< 20
9,"O=C(Nc1cc(C2=CCN(S(=O)(=O)NCC(F)(F)F)CC2)c2cc[nH]c2n1)C1CC1 [Example 232, N-(4-(1-(N-(2,2,2-trifluoroethyl)sulfamoyl)-1,2,3,6-tetrahydropyridin-4-yl)-1H-pyrrolo[2,3-b]pyridin-6-yl)cyclopropanecarboxamide]",20 to 200
10,"CN(CC(F)(F)F)S(=O)(=O)N1CC=C(c2cc(NC(=O)C3CC3)nc3[nH]ccc23)CC1 [Example 233, N-(4-(1-(N-methyl-N-(2,2,2-trifluoroethyl)sulfamoyl)-1,2,3,6-tetrahydropyridin-4-yl)-1H-pyrrolo[2,3-b]pyridin-6-yl)cyclopropanecarboxamide]",20 to 200
11,"O=C(Nc1cc(C2=CCN(S(=O)(=O)N3CCOCC3)CC2)c2cc[nH]c2n1)C1CC1 [Example 234, N-(4-(1-(morpholinosulfonyl)-1,2,3,6-tetrahydropyridin-4-yl)-1H-pyrrolo[2,3-b]pyridin-6-yl)cyclopropanecarboxamide]",20 to 200
12,"O=C(Nc1nc(-c2ccc(NS(=O)(=O)N3CCOCC3)cc2)c2cc[nH]c2n1)C1CC1 [Example 235, N-(4-(4-(morpholine-4-sulfonamido)phenyl)-7H-pyrrolo[2,3-d]pyrimidin-2-yl)cyclopropanecarboxamide]",20 to 200
13,"CN(C)S(=O)(=O)Nc1ccc(-c2nc(NC(=O)C3CC3)nc3[nH]ccc23)cc1 [Example 236, N-(4-(4-((N,N-dimethylsulfamoyl)amino)phenyl)-7H-pyrrolo[2,3-d]pyrimidin-2-yl)cyclopropanecarboxamide]",20 to 200
